Assay results taken from patent publication US20060275289A1, “Preventive or remedy for inflammatory bowel diseases containing anti-cd81 antibody as the active ingredient” (priority 2003, published 2006).

Legend:
[1] = test system: TNBS-induced colitis mouse; experiment: TNBS (2,4,6-trinitrobenzenesulfonic acid)-induced mouse colitis model; format: in vivo; conditions: antibody 0.1 mg/head i.p. on division day and day 2, SSZ 200 mg/kg orally once daily
Description: 0.5 g of egg albumin (OVA: manufactured by Sigma) and 0.5 g of K2CO3 (manufactured by Nacalai Tesque) were dissolved in 25 ml of distilled water for injection (OVA solution). 0.5 g of 2,4,6-trinitrobenzenesulfonic acid (TNBS: manufactured by Nacalai Tesque) was dissolved in 25 ml of 0.1 M K2CO3 (TNBS solution). The OVA solution and the TNBS solution were mixed, and the mixture was stirred overnight at room temperature. The stirred solution was dialyzed against 0.01 M NaHCO3 (manufactured by Nacalai Tesque) through a dialyzer (Spectra/Por Membrane MWCO:10,000, manufactured by Spectrum Medical Industries Inc.). The dialyzate was subjected to protein quantitative determination by BCA Protein Assay Reagent (manufactured by Pierce).
A 1:1 emulsion of complete Freunt adjuvant (CFA: manufactured by Difco Laboratories) and 2 mg/ml of TNP-OVA was subcutaneously injected (sensitized) into the back of a 5-week-old SJL/J mouse (SJL/JorlIcoCrj, male, supplied by Nippon Charles River) at a rate of 0.1 ml/head. […]
The symptom of colitis from the division day to day 5 after the division was observed. The symptom of colitis was scored according to the conditions of stool [normal stool (score:0), loose stool (score:1) and diarrhea (score:2)]. […]
On the final day of the experiment, after euthanasia with a high concentration of CO2, a large bowel was extracted, and the length thereof was measured. […]

[2] = test system: normal mice; conditions: cells incubated 48 hours with 0.2 μg/ml SEB and 10 μM of compound A (condition C); cited from earlier work
[3] = test system: intracellular IFN-γ; format: cell-based, mouse; conditions: SEB 1 μg/ml
[4] = test system: IBD-pathogenic cells (mesenteric lymph node cells and spleen cells of TNBS colitis mouse stimulated with Staphylococcal enterotoxin B); format: cell-based
[5] = rate of compound-reacted cells for 1% of the cell population, 10 μM compound A

O=C(O)c1cc(/N=N/c2ccc(S(=O)(=O)Nc3ccccn3)cc2)ccc1O [SSZ, sulfasalazine]
Intestinal Length mm(S.D) ([1]; large bowel length, day 5 after division, control 87.8 (10.3), Dunnet test * 0.01<p<0.05, ** p<0.01): 103.1 (8.3)** mm
Symptom of colitis (S.D) ([1]; stool score 0-2, SJL/J mice, control 1.75 (0.46), Steel test * 0.01<p<0.05): 0.71 (0.71)*

Clc1c(C2(c3ccc(N4CCOCC4)cc3)CCC2)nn2c1NCCC2 [compound A, 3-chloro-2-[1-(4-morpholin-4-ylphenyl)cyclobutyl]-4,5,6,7-tetrahydropyrazolo[1,5-a]pyrimidine]
induction of the symptom of colitis by cells transferred into normal mice [2]: do not induce the symptom of colitis
Compound-reacted cells/presence rate, cell surface marker CD3 [3, 5]: 1.1
Compound-reacted cells/presence rate, cell surface marker CD4 [3, 5]: 0.8
Compound-reacted cells/presence rate, cell surface marker CD40 [3, 5]: 2.7
Compound-reacted cells/presence rate, cell surface marker CD40L in CD3 [3, 5]: 0.8
Compound-reacted cells/presence rate, cell surface marker CD81 in CD3 [3, 5]: 11.1
Compound-reacted cells/presence rate, cell surface marker CD49d [3, 5]: 2.4
Compound-reacted cells/presence rate, cell surface marker TCRV β3 [3, 5]: 0
Compound-reacted cells/presence rate, cell surface marker TCRV γδ [3, 5]: 4.4
Compound-reacted cells (%), cell surface marker CD40L in CD3 ([3]; share of intracellular IFN-γ-positive cells reduced by compound A (total reduction = 100), 10 μM, presence rate 3.94%): 3.3%
Compound-reacted cells (%), cell surface marker CD81 in CD3 ([3]; share of intracellular IFN-γ-positive cells reduced by compound A (total reduction = 100), 10 μM, presence rate 4.67%): 51.7%
Compound-reacted cells (%), cell surface marker TCRV γδ ([3]; share of intracellular IFN-γ-positive cells reduced by compound A (total reduction = 100), 10 μM, presence rate 5.39%): 23.8%
Compound-reacted cells (%), cell surface marker CD40 ([3]; share of intracellular IFN-γ-positive cells reduced by compound A (total reduction = 100), 10 μM, presence rate 9.14%): 24.3%
Compound-reacted cells (%), cell surface marker CD49d ([3]; share of intracellular IFN-γ-positive cells reduced by compound A (total reduction = 100), 10 μM, presence rate 16.4%): 39.6%
Compound-reacted cells (%), cell surface marker CD4 ([3]; share of intracellular IFN-γ-positive cells reduced by compound A (total reduction = 100), 10 μM, presence rate 45.7%): 55.6%
Compound-reacted cells (%), cell surface marker CD3 ([3]; share of intracellular IFN-γ-positive cells reduced by compound A (total reduction = 100), 10 μM, presence rate 92.1%): 103.4%
Compound-reacted cells (%), cell surface marker TCRV β3 ([3]; share of intracellular IFN-γ-positive cells reduced by compound A (total reduction = 100), 10 μM, presence rate 100%): 0%
Gene chip expression signal, CD81 (101495_at) [4]: 195.1
Gene chip expression signal, CDw40 (92962_at) [4]: 63.9
Gene chip expression signal, DAP12 (100397_at) [4]: 1144.2
Gene chip expression signal, IL-9 (96574_at) [4]: 96.4
Gene chip expression signal, IL-10Rβ (99491_at) [4]: 1000.9
Gene chip expression signal, IL-17 (99349_at) [4]: 172.4
Gene chip expression signal, Integrin β1 (100124_r_at) [4]: 149.4
Gene chip expression signal, Lymphotoxin α (102630_s_at) [4]: 220.6
Gene chip expression signal, Paired-Ig-like receptor Al (100328_s_at) [4]: 791.2
Gene chip expression signal, TCRV γ4 (102745_at) [4]: 33.1
IFN-γ gene expression (DNA chip analysis) [4]: decreased
